Results as given in patent US20040143025A1, “Carbon monoxide generating compunds for treatment of vascular, inflammatory and immune disorders” (priority 2002, published 2004).

Assays:
IL-6 = test: Quantitative RT-PCR of cytokine mRNA in collagen-arthritis rats, IL-6; details: rat, in vivo
Procedure: (§1) Iodoform and bromoform were compared with methylene chloride as alternative carbon monoxide generating compounds, using the rat collagen arthritis model described in Example 6 above. Briefly, arthritis was induced in a Lovain strain of rats by immunizing the animals with Collagen Type II in Incomplete Freund's Adjuvant. Digitized radiographs were obtained at the completion of the study on day 28. Pharmacokinetics were also determined and the synovial tissue from the inflamed joints of the treated animals was harvested on Day 16 or Day 28 post-immunization. Disease systems were generally evident by Day 10.
(§2) Carboxyhemoglobin levels peaked within a few hours of administration but normalized within 24 hours without cumulative pharmacokinetic consequences. Messenger RNA (mRNA) from the treated animals was purified and specific mRNA levels for cytokines TNF, IL-6, and IFN-γ were quantitated by Quantitative RT-PCR.

[1] = Blood carboxyhemoglobin after alkyl halide administration; assay type: in vivo; details: 100 mg/kg
Procedure: The ability of the trihalomethanes iodoform and bromoform to act as carbon monoxide generating compounds was assayed in comparison with methylene chloride.

TNF = test: Quantitative RT-PCR of cytokine mRNA in collagen-arthritis rats, TNF; assay type: in vivo, rat; details: Day 28
Procedure: as §1, §2

IFN-γ = test: Quantitative RT-PCR of cytokine mRNA in collagen-arthritis rats, IFN-γ; details: rat, in vivo
Procedure: as §1, §2

[2] = system: Louvain rats immunized with collagen type II; test: Rat collagen-arthritis model; assay type: in vivo; set-up: arthritic score / Arthritis Score / X-Ray Score: scale not given here; details: for structural damage by blinded radiographic scores: day 28; for efficacy in comparison with methylene chloride (RB2000): rat collagen arthritis model, arthritic score; for arthritic scores in comparison to methylene chloride treated rats: rat, in vivo
Procedure: To assess the therapeutic potential of methylene chloride as a carbon-monoxide generating compound in this disease model, female Louvain rats weighing between 120 and 150 g were injected intradermally with 0.5 mg native chicken collagen type II solubilized in 0.1M acetic acid and emulsified in incomplete Freund's adjuvant. At the onset of disease (around day 10) animals were divided into three groups. One group was treated daily with vehicle, the second and third groups with 100 mg/kg/day and 500 mg/kg/day methylene chloride (p.o.). Severity of disease was evaluated daily using a quantification method based on standardized levels of swelling and periarticular erythema. Animals were sacrificed on day 28. […] Compared to control animals these differences were statistically significant (p<0.02).
as §1

Lewis rats = test: Experimental autoimmune encephalomyelitis (EAE) model of multiple sclerosis; assay type: in vivo, rat; details: daily oral administration from day 8 post-inoculation; scale 0 to 3
Procedure: Multiple sclerosis is characterized by an autoimmune and inflammatory response directed against myelin sheath and oligodendrocytes, resulting in demyelination in the central nervous system. A well-established animal model of multiple sclerosis, experimental autoimmune encephalomyelitis (EAE), was used to examine the effect of the subject alkyl halides on this autoimmune and inflammatory condition of the central nervous system. Lewis rats were given intradermal footpad injections of 50 μg guinea pig myelin basic protein (MBP) and complete Freund's adjuvant (CFA) to induce experimental allergic encephalomyelitis (EAE). Daily oral administration of vehicle, methylene chloride or iodoform was started on day 8 post-inoculation and continued to the end of the study. Animals were monitored and scored on a 0 (normal) to 3 (complete hindlimb paralysis) scale. Daily mean±SD clinical scores are shown.

rat liver [3] = system: rat liver; set-up: species or system Sprague Dawley (SD) rats; details: 2 h reperfusion, inhibitor given together with CO 300 ppm; for bile production / portal vein resistance: compared with CO alone
Excerpt: Animals. Male Sprague Dawley (SD) rats weighing between 300-350 g (Harlan Sprague Dawley, Indianapolis, Ind.) were used. Animals were fed standard rodent chow and water and libitum and cared according to guidelines approved by the American Association of Laboratory Animal Care.
Isolated perfusion liver apparatus. An isolated perfusion liver apparatus was used, as described in Amersi et al., supra, and Maulik et al., Circulation 94:398-406 (1996). In brief, syngeneic rat blood, obtained for each experiment from four donor animals, was diluted to a hematocrit of 15% with Krebs Ringer Bicarbonate Buffer (mM: NaCl 118, KH2POF 1, MgSO4 0.9, CaCl2 2.5, dextrose 11.1, and NaHCO2 25), and maintained at pH of 7.4. The perfusate was pumped from a heated reservoir that warmed the perfusate to 37° C. through silastic tubing oxygenator connected to a flow meter that measured portal vein blood flow (Cole Palmer Instruments, Chicago, Ill.). Portal pressure was kept constant via a pressure monometer connected to a T fitting in the portal vein canula. […] During the experiment, pH, temperature and oxygenation were kept constant.
Ex vivo cold ischemia model. SD rats underwent isoflourane anesthesia and systemic heparinization. […] The livers were then stored for 24 h at 4° C. in UW solution, followed by ex-vivo reperfusion for 1-2 h on an isolated perfusion liver apparatus. Portal vein blood flow, pressure, and bile production were recorded every 30 min. Blood samples were collected at 30 min intervals and serum glutamic oxaloacetic transaminase (sGOT) levels were measured using an autoanalyzer from ANTECH Diagnostics (Irvine, Calif.). At the conclusion of experiment, a portion of the liver was snap frozen for mRNA extraction/Western blot analyses; the remaining samples were fixed in formalin for H&E staining.
The role of CO—HO-1 pathway in hepatic I/R injury was studied in five major treatment groups (n=4.8 rats/group). In Group 1, the extent of I/R injury was contrasted between livers perfused ex-vivo with blood saturated with CO (300 parts per million [ppm]; 0.03% balanced air) vs. air alone (21% O2). As NO may enhance HO-1 expression (Brouard et al., supra), we then investigated a link between the two gaseous molecules in Group 2 livers, which were perfused with CO supplemented with 25 mM NG-nitro-L-arginine methyl ester hydrochloride (L-NAME; Sigma Chemicals, St. Louis, Mo.), an inducible NO inhibitor. […] To analyze as to whether exogenous CO can substitute for HO-1 in preventing I/R insult, Group 4 rats were treated 24 h prior to liver procurement with ZnPP)(1.5 mg/kg/i.p; Porphyrin Products, Logan Utah), an HO-1 inhibitor, followed by ex vivo perfusion with CO. […] Brouard et al., supra. Therefore, Group 5 rats were pre-treated 60 min before harvest with p38 MAPK inhibitor, SB203580, a pyridinyl imidazol (25 mg/kg orally; Sigma). In addition, prior to reperfursion with CO, SB203580 (20 μM) was added to the perfusate.

HO-1 [4] = test: HO-1 enzymatic activity in liver homogenates; assay type: biochemical, rat; details: liver after perfusion; ZnPP = 1.5 mg/kg i.p. 24 h before harvest then CO perfusion; CO = CO only
Procedure: HO-1 Enzymatic Activity. Livers were homogenized on ice in a Tris-HCl lysis buffer (pH 7.4) containing 0.5% Triton X-100 and protease inhibitors. Samples were frozen in small aliquots until use. Homogenates (100 μl) were mixed with 0.8 mM NADPH, 0.8 mM glucose-6-phosphate 1.0 unit G-60P dehydrogenase, 1 mM MgCl2 and […] purified rat liver biliverdin reductase at 4° C. The reaction was initiated by the addition of hemin (final concentration 0.25 mM). The reaction mixture was incubated at 37° C. in the dark for 15 min. At the end of incubation period, any insoluble material was removed by centrifugation and supernatants were analyzed for bilirubin concentration. An extinction coefficient of 40 mM^−1 cm^−1 at A 460-530 was used to calculate the amount of bilirubin formed. Controls included naive samples in the absence of the NADPH generating system and all the ingredients of the reaction mixture in the absence of graft homogenates. Biliverdin reductase was purified from rat liver, as described in Browne and Ultrich, Mol. Pharmacol. 32:497-504 (1987).

HO-1 [5] = test: ELISA for HO-1 protein expression in liver; set-up: species or system rat; details: ZnPP = pretreatment then CO perfusion; CO = CO only
Procedure: ELISA for HO-1 protein expression. Livers were homogenized on ice in a Tris-HCl lysis buffer (pH 7.4) containing 0.5% Triton X-100 and protease inhibitors. Flat-bottom microtiter 96-well plates (Nunc) were coated with 7 μg/ml anti-HO-1 mAb (OSA-111, Stressgen, Canada) in PBS for 18 h at room temperature. Unbound Ab was removed by washing (wash buffer: 0.05% Tween 20 in 50 mM phosphate buffer, pH 7.5) and remaining binding sites were blocked by incubation with a 5% BSA/PBS solution (1 h). Recombinant HO-1 (SPP-730) and tissue homogenate were diluted in assay diluent (0.5% BSA/0.05% Tween 20/PBS) and incubated in anti-HO-1 mAb coated wells for 1 h at room temperature. Subsequently, plates were washed three times with wash buffer and incubated with rabbit anti-HO-1 polyclonal antibody (SPA-895, Stressgen; diluted 1:1000 in assay diluent) for 30 min at room temperature. Bound rabbit IgG was detected with a donkey anti-rabbit (gG-HRP conjugate (711-035-152, Jackson Research Laboratories; diluted 1:8000 in assay diluent). Unbound secondary Ab was removed by washing and bound HRP was detected using 1 mg/ml OPD in substrate buffer (0.1% H2O2, 0.1 M citric acid, 0.2 M Na2HPO4, pH 5.0). The color reaction was stopped with 1 M HCl and the optical density at 490 nm was measured.

rat liver [6] = test: Histologic severity of I/R injury, Banff criteria; set-up: species or system Sprague Dawley (SD) rats; details: CO plus inhibitor, 2 h perfusion; scale 1-4
Excerpt: Histology. Liver specimens were fixed in a 10% buffered formalin solution and embedded in paraffin. Sections were made at 4 μm and stained with H&E. The histologic severity of I/R injury was graded using International Banff Criteria (Int'l Banff Schema Conference Worksheet, The Third Int'l Banff Conference on Allograft Pathology, June 21-25 (1995)). Using these criteria, lobular disarray and ballooning changes are graded from 1-4, where no change is given a score of 1 and severe disarray or ballooning changes are given a score of 4.

Row | Structure (SMILES) | mRNA levels for IL-6 compared to methylene chloride treated rats (IL-6) | COHb level in comparison with the same amount of methylene chloride [1] | mRNA levels for TNF compared to methylene chloride treated rats (TNF) | mRNA levels for IFN-γ compared to methylene chloride treated rats (IFN-γ) | Arthritis Score ([2]; Day 28, dose 250 mg/kg) | X-Ray Score ([2]; Day 28, dose 250 mg/kg) | structural damage by blinded radiographic scores [2] | efficacy in comparison with methylene chloride (RB2000) [2] | arthritic scores in comparison to methylene chloride treated rats [2] | bile production (rat liver [3]) | portal vein resistance (rat liver [3]) | sGOT release (rat liver [3]) [IU/L] | other results
1 | BrC(Br)Br [bromoform] | substantially lower | higher COHb level | higher | substantially lower | 5.5 ± 0.86 | 2.75 ± 0.81 | significantly inhibited structural damage | superior efficacy | significantly lower | – | – | – | –
2 | IC(I)I [iodoform] | substantially lower | higher COHb level | higher | substantially lower | 1.85 ± 0.91 | 0.85 ± 0.45 | significantly inhibited structural damage | superior efficacy | significantly lower | – | – | – | clinical score / clinical signs (Lewis rats): did not display any clinical signs; Arthritis Score ([2]; Day 28, dose 100 mg/kg): 3.62 ± 0.99; X-Ray Score ([2]; Day 28, dose 100 mg/kg): 1.50 ± 0.80; Arthritis Score ([2]; Day 28, dose 175 mg/kg): 3.16 ± 0.99; X-Ray Score ([2]; Day 28, dose 175 mg/kg): 1.90 ± 0.64
3 | C[S+]([O-])c1ccc(-c2nc(-c3ccncc3)c(-c3ccc(F)cc3)[nH]2)cc1 (centres unmarked) [SB203580] | – | – | – | – | – | – | – | – | – | significantly less bile | significant increase in portal vein resistance | 352±21 | –
4 | O=C1C(Nc2ccccc2)=CC(=O)c2ncccc21 [LY-83583, 6-anilino-5,8-quinalinedone] | – | – | – | – | – | – | – | – | – | comparable | slightly increased | 186±21 | –
5 | COC(=O)[C@@H](N)CCCN=C(N)N[N+](=O)[O-].Cl [L-NAME, NG-nitro-L-arginine methyl ester hydrochloride] | – | – | – | – | – | – | – | – | – | increase in bile production | decrease in portal vein resistance | 191±16 | –
6 | C=CC1=C(C)c2cc3[n-]c(cc4[n-]c(cc5nc(cc1n2)C(C)=C5C=C)c(C)c4CCC(=O)O)c(CCC(=O)O)c3C.[Zn+2] [ZnPP] | – | – | – | – | – | – | – | – | – | increased bile production | decreased portal vein resistance | 202±11 | HO-1 enzyme activity (HO-1 [4]): 0.95±0.06 nmol of bilirubin/mg/protein/min; HO-1 protein expression in liver samples (ELISA) (HO-1 [5]): 0.85±0.62 ng of HO-1/mg lysate; Banff score of I/R injury (rat liver [6]): 1.5±0.0
